Where two headings read alike, the source gives them in different places.
Tests used:
human JAK2 = human JAK2 (Homo sapiens (Human), UniProt O60674); experiment: biochemical
human FAK [1] = molecular target: T1, human FAK (Homo sapiens (Human), UniProt Q05397); experiment: biochemical
Protocol: (§1) The ability of compounds to inhibit the kinase activity of baculovirus-expressed human FAK and PYK2 was measured using the 96-well plate TRF assay system described above for JAK2. […] For the FAK kinase assay, the reaction mixture (total volume=100 μL/well) contained 20 mM HEPES (pH 7.2), 10 μM ATP, 5 mM MgCl2, 0.5 mM DTT, 0.1% BSA, and test compound (diluted in DMSO; 2.5% DMSO final in assay). For PYK2, the 100 μL assay solution consisted of 20 mM HEPES (pH 7.2), 3 μM ATP, 5 mM MnCl2, 0.1% BSA, and test compound (diluted in DMSO; 2.5% DMSO final in assay). Enzyme (10 ng/mL FAK or 25 ng/mL PYK2) was added and the reaction was allowed to proceed at room temperature for 30 min. Detection of the phosphorylated product was performed by adding 100 μL/well of Eu—N1 labeled PY100 antibody diluted 1:75000 in 0.25% BSA in TBS-T (PerkinElmer #AD0041). […] Inhibition data were analyzed using ActivityBase and IC50 curves generated using XLFit.

human FAK [2] = molecular target: T1, human FAK; details: read-out: FAK IC50
Protocol: as §1

Sequence of human JAK2 (O60674 815-1132): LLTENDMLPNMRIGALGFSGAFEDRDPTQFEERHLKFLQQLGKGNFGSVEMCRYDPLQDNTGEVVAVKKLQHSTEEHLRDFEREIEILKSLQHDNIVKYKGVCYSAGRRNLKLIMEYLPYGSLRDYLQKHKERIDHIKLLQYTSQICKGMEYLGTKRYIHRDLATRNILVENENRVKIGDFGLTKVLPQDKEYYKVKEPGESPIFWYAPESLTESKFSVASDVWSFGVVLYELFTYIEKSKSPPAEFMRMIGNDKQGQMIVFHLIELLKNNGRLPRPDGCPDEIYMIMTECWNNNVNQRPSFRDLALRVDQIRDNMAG
T1 sequence (Q05397 whole entry): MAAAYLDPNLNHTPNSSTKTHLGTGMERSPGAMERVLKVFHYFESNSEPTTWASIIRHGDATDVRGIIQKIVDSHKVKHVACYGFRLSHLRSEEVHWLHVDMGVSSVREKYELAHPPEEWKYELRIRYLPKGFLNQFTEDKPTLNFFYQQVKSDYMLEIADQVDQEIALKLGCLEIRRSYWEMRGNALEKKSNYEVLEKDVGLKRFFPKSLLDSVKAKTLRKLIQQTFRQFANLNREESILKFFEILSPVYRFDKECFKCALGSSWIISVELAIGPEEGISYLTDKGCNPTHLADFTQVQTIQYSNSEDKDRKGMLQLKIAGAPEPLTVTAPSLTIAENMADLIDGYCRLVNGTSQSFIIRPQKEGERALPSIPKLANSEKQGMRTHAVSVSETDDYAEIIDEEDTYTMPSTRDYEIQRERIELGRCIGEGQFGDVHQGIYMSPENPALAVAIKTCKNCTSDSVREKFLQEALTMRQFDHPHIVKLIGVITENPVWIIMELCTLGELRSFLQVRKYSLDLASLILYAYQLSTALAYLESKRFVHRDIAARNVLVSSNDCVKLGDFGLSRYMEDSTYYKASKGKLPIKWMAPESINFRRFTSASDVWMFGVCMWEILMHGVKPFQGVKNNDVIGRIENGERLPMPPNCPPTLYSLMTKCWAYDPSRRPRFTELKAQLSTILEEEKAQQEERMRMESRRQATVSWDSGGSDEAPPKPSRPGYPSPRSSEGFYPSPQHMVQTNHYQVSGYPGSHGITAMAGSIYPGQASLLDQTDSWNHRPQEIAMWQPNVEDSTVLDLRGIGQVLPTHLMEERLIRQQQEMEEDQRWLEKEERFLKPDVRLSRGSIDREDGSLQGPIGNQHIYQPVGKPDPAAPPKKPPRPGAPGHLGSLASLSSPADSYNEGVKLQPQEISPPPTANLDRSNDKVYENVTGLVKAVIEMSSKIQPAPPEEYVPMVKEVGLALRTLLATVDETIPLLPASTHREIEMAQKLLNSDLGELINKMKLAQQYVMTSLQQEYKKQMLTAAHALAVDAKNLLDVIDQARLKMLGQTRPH

Structure (SMILES) | IC50 (human JAK2) [nM] | IC50 (human FAK [1]) [nM] | IC50 (human FAK [2]) [nM]
CS(=O)(=O)c1ccc(-c2cccn3nc(Nc4cccc([C@@H]5CCNC[C@@H]5O)c4)nc23)cc1 (racemic) [Example 188, (±)-(cis)-4-{3-[8-(4-Methanesulfonyl-phenyl)-[1,2,4]triazolo[1,5-a]pyridin-2-ylamino]-phenyl}-piperidin-3-ol] | 1.43 | 1940 | –
CS(=O)(=O)c1ccc(-c2cccn3nc(Nc4cccc(N5CCC(N6CCOCC6)CC5)c4)nc23)cc1 [Example 57, [8-(4-Methanesulfonyl-phenyl)-[1,2,4]triazolo[1,5-a]pyridin-2-yl]-[3-(4-morpholin-4-yl-piperidin-1-yl)-phenyl]-amine] | 0.5 | – | 1180
